Results on 18 compounds are retold here after patent US20260124214A1, “HETEROCYCLIC COMPOUNDS FOR USE IN THE TREATMENT OF CANCER” (ARTIOS PHARMA LIMITED, priority 2021, published 2026).

The target of the assay is T1, Human Polθ polymerase domain (aa1820-2590) (Homo sapiens, UniProt O75417).
T1 construct: Human Polθ polymerase domain (aa1820-2590) was expressed in E. Coli; made in house; host or cells: E. coli
T1 sequence (O75417 1820-2590): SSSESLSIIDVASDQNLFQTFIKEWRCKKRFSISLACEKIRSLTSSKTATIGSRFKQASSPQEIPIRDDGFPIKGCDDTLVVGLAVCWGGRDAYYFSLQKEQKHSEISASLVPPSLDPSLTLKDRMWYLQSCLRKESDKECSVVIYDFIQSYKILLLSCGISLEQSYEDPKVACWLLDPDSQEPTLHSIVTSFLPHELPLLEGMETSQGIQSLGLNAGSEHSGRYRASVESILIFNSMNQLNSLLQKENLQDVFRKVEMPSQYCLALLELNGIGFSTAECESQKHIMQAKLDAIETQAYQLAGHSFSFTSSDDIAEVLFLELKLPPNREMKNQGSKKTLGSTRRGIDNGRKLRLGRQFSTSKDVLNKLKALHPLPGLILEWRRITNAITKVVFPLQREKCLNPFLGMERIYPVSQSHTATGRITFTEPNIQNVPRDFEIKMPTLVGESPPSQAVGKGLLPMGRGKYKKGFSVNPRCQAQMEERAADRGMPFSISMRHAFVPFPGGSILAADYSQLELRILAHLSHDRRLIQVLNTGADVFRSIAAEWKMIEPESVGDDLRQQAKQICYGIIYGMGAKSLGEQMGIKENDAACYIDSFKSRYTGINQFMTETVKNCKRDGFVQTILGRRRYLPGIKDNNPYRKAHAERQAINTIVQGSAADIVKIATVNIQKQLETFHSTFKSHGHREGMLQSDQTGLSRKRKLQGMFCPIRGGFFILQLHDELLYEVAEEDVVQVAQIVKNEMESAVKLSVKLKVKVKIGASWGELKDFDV
Put plainly: Polθ Polymerase Domain WT KI Assay (PicoGreen). It is filed as biochemical. The conditions noted are these: 100 nM DNA substrate, 0.156 nM Polθ, initial rates vs inhibitor concentration. In a few lines:
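E. coli-expressed human Polθ polymerase domain (aa1820-2590) on annealed DNA II Short/Long primer-template (1.2:1), in 25 mM Tris pH 7.5, NaCl, 5% glycerol, 0.01% Triton X-100, 0.1 mg/ml BSA, 1 mM DTT, 1% DMSO. EDTA-quenched timepoints to 180 min, PicoGreen fluorescence. Initial rates vs inhibitor concentration fitted four-parameter for KI.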
As for `Cc1cc(C(F)(F)F)cc(N2C(=O)C[C@@H]3CN(CCN4CCNCC4)c4c(C)cccc4N(C)C(=O)[C@H]32)n1` [Example 16, (3aR,11aS)-6,10-Dimethyl-1-(6-methyl-4-(trifluoromethyl)pyridin-2-yl)-5-(2-(piperazin-1-yl)ethyl)-1,3a,4,5,10,11a-hexahydro-2H-benzo[b]pyrrolo[2,3-f][1,4]diazocine-2,11(3H)-dione], the inhibitory constant (Ki) (commonly a dissociation constant, usually derived from enzyme kinetics or from competition with a known ligand) was found to be 1.2 nM. This counts as single-digit nanomolar.
The result for `CNCCNCCN1C[C@H]2CC(=O)N(c3cc(C(F)(F)F)cc(C)n3)[C@@H]2C(=O)N(C)c2cccc(C)c21` [Example 17, (3aR,11aS)-6,10-Dimethyl-1-(6-methyl-4-(trifluoromethyl)pyridin-2-yl)-5-(2-((2-(methylamino)ethyl)amino)ethyl)-1,3a,4,5,10,11a-hexahydro-2H-benzo[b]pyrrolo[2,3-f][1,4]diazocine-2,11(3H)-dione] reads 2.43 nM.
Then `Cc1cc(C(F)(F)F)cc(N2C(=O)C[C@@H]3CN(CCO)c4c(F)cccc4N(C)C(=O)[C@H]32)n1` [Example 18, (3aR,11aS)-6-Fluoro-5-(2-hydroxyethyl)-10-methyl-1-(6-methyl-4-(trifluoromethyl)pyridin-2-yl)-1,3a,4,5,10,11a-hexahydro-2H-benzo[b]pyrrolo[2,3-f][1,4]diazocine-2,11(3H)-dione], with 16.7 nM; and `Cc1cc(C(F)(F)F)cc(N2C(=O)C[C@@H]3CN(CCN4CCNCC4)c4c(Cl)cccc4N(C)C(=O)[C@H]32)n1` [Example 19, (3aR,11aS)-6-Chloro-10-methyl-1-(6-methyl-4-(trifluoromethyl)pyridin-2-yl)-5-(2-(piperazin-1-yl)ethyl)-1,3a,4,5,10,11a-hexahydro-2H-benzo[b]pyrrolo[2,3-f][1,4]diazocine-2,11(3H)-dione], with 1.87 nM.
Turning to `Cc1cc(C(F)(F)F)cc(N2C(=O)C[C@@H]3CN(CCN4CCOCC4)c4c(Cl)cccc4N(C)C(=O)[C@H]32)n1` [Example 20, (3aR,11aS)-6-Chloro-10-methyl-1-(6-methyl-4-(trifluoromethyl)pyridin-2-yl)-5-(2-morpholinoethyl)-1,3a,4,5,10,11a-hexahydro-2H-benzo[b]pyrrolo[2,3-f][1,4]diazocine-2,11(3H)-dione], the Ki amounted to 1.82 nM.
As to `CCN(CC)CCN1C[C@H]2CC(=O)N(c3cc(C(F)(F)F)cc(C)n3)[C@@H]2C(=O)N(C)c2cccc(Cl)c21` [Example 21, (3aR,11aS)-6-Chloro-5-(2-(diethylamino)ethyl)-10-methyl-1-(6-methyl-4-(trifluoromethyl)pyridin-2-yl)-1,3a,4,5,10,11a-hexahydro-2H-benzo[b]pyrrolo[2,3-f][1,4]diazocine-2,11(3H)-dione], the Ki came out at 9.94 nM.
In turn, `Cc1cc(C(F)(F)F)cc(N2C(=O)C[C@@H]3CN(CCN4CCC(F)(F)CC4)c4c(Cl)cccc4N(C)C(=O)[C@H]32)n1` [Example 22, (3aR,11aS)-6-Chloro-5-(2-(4,4-difluoropiperidin-1-yl)ethyl)-10-methyl-1-(6-methyl-4-(trifluoromethyl)pyridin-2-yl)-1,3a,4,5,10,11a-hexahydro-2H-benzo[b]pyrrolo[2,3-f][1,4]diazocine-2,11(3H)-dione] displayed a Ki of 1.79 nM.
As for `Cc1cc(C(F)(F)F)cc(N2C(=O)C[C@@H]3CN(CCN4CCC(F)(F)C4)c4c(Cl)cccc4N(C)C(=O)[C@H]32)n1` [Example 23, (3aR,11aS)-6-Chloro-5-(2-(3,3-difluoropyrrolidin-1-yl)ethyl)-10-methyl-1-(6-methyl-4-(trifluoromethyl)pyridin-2-yl)-1,3a,4,5,10,11a-hexahydro-2H-benzo[b]pyrrolo[2,3-f][1,4]diazocine-2,11(3H)-dione], the Ki came out at 1.48 nM. The Ki values of the last two compounds are within 1.5-fold of each other.
Regarding `Cc1cc(C(F)(F)F)cc(N2C(=O)C[C@@H]3CN(CCN4CCOC[C@H]4C)c4c(Cl)cccc4N(C)C(=O)[C@H]32)n1` [Example 24, (3aR,11aS)-6-Chloro-10-methyl-1-(6-methyl-4-(trifluoromethyl)pyridin-2-yl)-5-(2-((R)-3-methylmorpholino)ethyl)-1,3a,4,5,10,11a-hexahydro-2H-benzo[b]pyrrolo[2,3-f][1,4]diazocine-2,11(3H)-dione], the Ki is 1.78 nM.
The result for `Cc1cc(C(F)(F)F)cc(N2C(=O)C[C@@H]3CN(CCN4CCOC[C@@H]4C)c4c(Cl)cccc4N(C)C(=O)[C@H]32)n1` [Example 25, (3aR,11aS)-6-Chloro-10-methyl-1-(6-methyl-4-(trifluoromethyl)pyridin-2-yl)-5-(2-((S)-3-methylmorpholino)ethyl)-1,3a,4,5,10,11a-hexahydro-2H-benzo[b]pyrrolo[2,3-f][1,4]diazocine-2,11(3H)-dione] reads 0.711 nM; that for `Cc1cc(C(F)(F)F)cc(N2C(=O)C[C@@H]3CN(CCN4CCN(CCF)CC4)c4c(Cl)cccc4N(C)C(=O)[C@H]32)n1` [Example 26, (3aR,11aS)-6-Chloro-5-(2-(4-(2-fluoroethyl)piperazin-1-yl)ethyl)-10-methyl-1-(6-methyl-4-(trifluoromethyl)pyridin-2-yl)-1,3a,4,5,10,11a-hexahydro-2H-benzo[b]pyrrolo[2,3-f][1,4]diazocine-2,11(3H)-dione], 2.72 nM; that for `COCCN1CCN(CCN2C[C@H]3CC(=O)N(c4cc(C(F)(F)F)cc(C)n4)[C@@H]3C(=O)N(C)c3cccc(Cl)c32)CC1` [Example 27, (3aR,11aS)-6-Chloro-5-(2-(4-(2-methoxyethyl)piperazin-1-yl)ethyl)-10-methyl-1-(6-methyl-4-(trifluoromethyl)pyridin-2-yl)-1,3a,4,5,10,11a-hexahydro-2H-benzo[b]pyrrolo[2,3-f][1,4]diazocine-2,11(3H)-dione], 1.33 nM.
The result for `Cc1cc(C(F)(F)F)cc(N2C(=O)C[C@@H]3CN(CCN4CCN(C5COC5)CC4)c4c(Cl)cccc4N(C)C(=O)[C@H]32)n1` [Example 28, (3aR,11aS)-6-Chloro-10-methyl-1-(6-methyl-4-(trifluoromethyl)pyridin-2-yl)-5-(2-(4-(oxetan-3-yl)piperazin-1-yl)ethyl)-1,3a,4,5,10,11a-hexahydro-2H-benzo[b]pyrrolo[2,3-f][1,4]diazocine-2,11(3H)-dione] reads 1.97 nM; that for `Cc1cc(C(F)(F)F)cc(N2C(=O)C[C@@H]3CN(CCN4CC5(COC5)C4)c4c(Cl)cccc4N(C)C(=O)[C@H]32)n1` [Example 29, (3aR,11aS)-5-(2-(2-Oxa-6-azaspiro[3.3]heptan-6-yl)ethyl)-6-chloro-10-methyl-1-(6-methyl-4-(trifluoromethyl)pyridin-2-yl)-1,3a,4,5,10,11a-hexahydro-2H-benzo[b]pyrrolo[2,3-f][1,4]diazocine-2,11(3H)-dione], 1.42 nM; that for `Cc1cc(C(F)(F)F)cc(N2C(=O)C[C@@H]3CN(CCN4CCN(C)[C@@H](C)C4)c4c(Cl)cccc4N(C)C(=O)[C@H]32)n1` [Example 30, (3aR,11aS)-6-Chloro-5-(2-((S)-3,4-dimethylpiperazin-1-yl)ethyl)-10-methyl-1-(6-methyl-4-(trifluoromethyl)pyridin-2-yl)-1,3a,4,5,10,11a-hexahydro-2H-benzo[b]pyrrolo[2,3-f][1,4]diazocine-2,11(3H)-dione], 0.381 nM.
`Cc1cc(C(F)(F)F)cc(N2C(=O)C[C@@H]3CN(CCN4CC[C@@H](O)C4)c4c(Cl)cccc4N(C)C(=O)[C@H]32)n1` [Example 31, (3aR,11aS)-6-Chloro-5-(2-((R)-3-hydroxypyrrolidin-1-yl)ethyl)-10-methyl-1-(6-methyl-4-(trifluoromethyl)pyridin-2-yl)-1,3a,4,5,10,11a-hexahydro-2H-benzo[b]pyrrolo[2,3-f][1,4]diazocine-2,11(3H)-dione]: the Ki amounted to 2.62 nM.
As to `Cc1cc(C(F)(F)F)cc(N2C(=O)C[C@@H]3CN(CCN4CC[C@H](O)C4)c4c(Cl)cccc4N(C)C(=O)[C@H]32)n1` [Example 32, (3aR,11aS)-6-Chloro-5-(2-((S)-3-hydroxypyrrolidin-1-yl)ethyl)-10-methyl-1-(6-methyl-4-(trifluoromethyl)pyridin-2-yl)-1,3a,4,5,10,11a-hexahydro-2H-benzo[b]pyrrolo[2,3-f][1,4]diazocine-2,11(3H)-dione], the affinity, expressed as Ki, was 6.78 nM.
Turning to `CC(=O)N1CCN(CCN2C[C@H]3CC(=O)N(c4cc(C(F)(F)F)cc(C)n4)[C@@H]3C(=O)N(C)c3cccc(Cl)c32)CC1` [Example 33, (3aR,11aS)-5-(2-(4-Acetylpiperazin-1-yl)ethyl)-6-chloro-10-methyl-1-(6-methyl-4-(trifluoromethyl)pyridin-2-yl)-1,3a,4,5,10,11a-hexahydro-2H-benzo[b]pyrrolo[2,3-f][1,4]diazocine-2,11(3H)-dione], the affinity, expressed as Ki, was 1.73 nM.
